Values joined by “and” are separate entries in the source; they are usually repeats but may differ in a detail not shown here. Identical values can stand only once. “Also recorded” adds a separate entry of the source.
Key:
[1] = system: CD-1 mice; assay: Immunotoxicity--Multi-dose: survival, weight, organ and histopathology assessment; format: in vivo; conditions: for Organ weight, Kidney / Organ weight, Liver / Organ weight, Lung / Organ weight, Spleen / Organ weight, Tail: individual animals A, B
Description: The immunotoxicological potential of KCPBL was evaluated in this experiment in which the study drug was administered to CD-1 mice for fourteen days (100 or 1000 mg/kg/day), either perorally (by gavage) or intravenously (tail vein). On the fifteenth day, the mice were weighed and sacrificed. The spleen, lungs, liver, kidneys and thymus were removed from each animal, fixed in formalin and histopathologically evaluated. In addition, a differential white blood cell count was obtained for a peripheral blood sample as well as the following tests performed: spleen cell counts (performed with Coulter Counter) and lymphocyte stimulation assays using PHA, CON-A and PWM techniques.
CD-1 mice were obtained from Charles Rivers Laboratories. The mice were quarantined for at least one week in a separate holding room prior to use in this experiment. Five mice per treatment were used. The mice were housed in a Thoren positive pressure laminar flow Maximizer caging system with each case controlled for water and air flow. The mouse rooms are maintained on a 12-hour light/dark cycle at a constant temperature of 76° F.
KCPBL containing approximately 50:50 ratio of the two epimers as determined by HPLC and optical rotation analysis was used in this study. An amount of drug was calculated to deliver the equivalent of 100 or 1000 mg/kg, either by the oral or intravenous route. The average weight of the mice was 29.5 grams.
[…] Mice were administered KCPBL daily for a total of fourteen days via the oral (0.2 ml of a 147.5 mg/ml solution or a 29.5 mg/ml solution by gavage) and intravenous route (0.2 ml of 147.5 mg/ml solution or a 29.5 mg/ml solution by tail vein) to achieve a dose of 100 or 1000 mg/kg, respectively. The test dose was prepared fresh daily and dissolved in sterile non-pyrogenic saline. On the fifteenth day the mice were weighed, sacrificed, and the spleens, lungs, livers, kidneys and thymuses removed. These organs were weighed and, except for the spleens, the formalin-fixed organs were analyzed by a veterinary pathologist. Only two randomly-selected sets of animal organs per treatment group were histopathologically evaluated since the remaining three animals were used to isolate splenic lymphocytes for use in cellular immunoassays.
A leukocyte differential was obtained on peripheral blood samples and spleen cell counts (performed with Coulter Counter), and an IL-2 induction assessment as well as standard lymphocyte stimulation assays using PHA, CON-A and PWM conducted.
Survival was assessed through the fifteenth day. All the surviving mice were sacrificed on the fifteenth day, predetermined organs removed, place in formalin, and subjected to for histopathologic examination by a veterinary pathologist.
The individual spleens of three mice from control and test groups were processed to isolate lymphocytes and the protocols for lymphocyte blastogenesis, IL-2 induction and assay were performed. The remaining two mice in each group were sacrificed and their lungs, liver, kidney, and spleen were fixed in formalin and sent to AnMed Biosafe for histopathologic examination.

[2] = system: splenocytes; assay: Immunomodulation panel: total splenocyte counts, antigen stimulated mice; format: in vivo, C57BL/6J mice
Description: (§1) Daily intraperitoneal injections of KCPBL were administered to normal animals and immunological responsiveness to mitogens and specific antigen evaluated.
The test compound was weighed out immediately before use and dissolved in the injection vehicle. This solution was sterile-filtered using a 0.22 micron filter and the appropriate dose injected into mice in a 0.5 ml volume. The dose was individually calculated for each animal, based on animal weight on the first day of the experiment.
(§2) Inbred C57BL/6J mice were obtained from Jackson Laboratories, Bar Harbor, Me. The animals were held for one week before use in an experiment. Prior to commencement of a study, the animals were placed into groups and weighed.
Group size ten male mice per dosage group.
(§3) Doses and schedule--Doses were selected to bracket the range generally known to be immunostimulatory in past experiments, 1, 10, and […] daily for four days.
(§4) Immunization--All animals except for sham controls were injected with 0.5 ml of a 2% suspension of sheep erythrocyte on day zero. This occurred two days following any pretreatment and the day before the initiation of study drug administration.
Sacrifice--Animals were sacrificed by cervical dislocation on day five. […]
As an assessment of immunopathology in the above screening test panel, the cellularity of the spleen was evaluated by determination of the total number of splenocytes harvested. Humoral-mediated immunity was measured by enumerating IgM plaque-forming cells to the T-dependent antigen sheep erythrocytes. Cell-mediated immunity was evaluated as described above by determination of the ability of the splenocytes to produce the lymphokine interleukin-2 in response to stimulation by the mitogen concanavalin-A. Another measurement of cell-mediated immunity was the responsiveness of the splenic lymphocytes to the mitogens concanavalin-A (Con-A); phytohemagglutinin (PHA) and pokeweed mitogen (PWM) in the lymphocyte blastogenesis assay. […] The responsiveness of the cells was measured by the uptake of radiolabeled 14C-thymidine.

[3] = system: IgM plaque-forming cells to sheep erythrocytes; assay: Immunomodulation panel: IgM plaque-forming response to SRBC; format: in vivo, C57BL/6J mice; set-up: Anti-SRBC Plaque Forming Cells: unit not given here
Description: as §1, §2, §3, §4
Sacrifice--Animals were sacrificed by cervical dislocation on day five. The spleens were surgically removed and the following immunological evaluations conducted.
As an assessment of immunopathology in the above screening test panel, the cellularity of the spleen was evaluated by determination of the total number of splenocytes harvested. Humoral-mediated immunity was measured by enumerating IgM plaque-forming cells to the T-dependent antigen sheep erythrocytes. Cell-mediated immunity was evaluated as described above by determination of the ability of the splenocytes to produce the lymphokine interleukin-2 in response to stimulation by the mitogen concanavalin-A. Another measurement of cell-mediated immunity was the responsiveness of the splenic lymphocytes to the mitogens concanavalin-A (Con-A); phytohemagglutinin (PHA) and pokeweed mitogen (PWM) in the lymphocyte blastogenesis assay. In the latter test, the activation and proliferation of the lymphocytes to the mitogens represents the capability of the cells to sequentially pass from G0 to G1 and the S phse of the cell cycle. The responsiveness of the cells was measured by the uptake of radiolabeled 14C-thymidine.

[4] = system: splenic lymphocytes; assay: Immunomodulation panel: lymphocyte blastogenesis (Con-A, PHA, PWM); format: in vivo, C57BL/6J mice; conditions: 100 mg/kg i.p.
[5] = group 2 (1000 mg/kg P.O.), 1000 mg/kg
[6] = group 3 (1000 mg/kg IV), 1000 mg/kg
[7] = group 5 (100 mg/kg IV), 100 mg/kg

O=C1CCC(C2(O)C(=O)OC3C(O)COC32O)C1 (centres unmarked) [KCPBL]
PMV:Mono ratio ([1]; 100 mg/kg IV (group 5)): 10/90 | PMV:Mono ratio ([1]; 1000 mg/kg IV (group 3)): 11/89 | PMV:Mono ratio ([1]; 1000 mg/kg P.O. (group 2)): 21/79 | generalized toxicity / immunotoxic effect ([1]; 100 or 1000 mg/kg, either route): None of the mice showed evidence of generalized toxicity; also recorded: no evidence of a immunotoxic effect | weight loss ([1]; 100 or 1000 mg/kg/day, 14 days, i.v. or p.o.): No clinically significant weight loss | survival / deaths ([1]; 14 days dosing): Except for treatment group 4 (KCPBL 100 mg/kg perorally), all animals survived to the conclusion of the trial; also recorded: In group 4, two animals were found dead on day 4 and another animal dead on day 10 | Organ weight, Kidney [1, 5]: 271.7 mg and 269.8 mg | Organ weight, Liver [1, 5]: 1710 mg and 1780 mg | Organ weight, Lung [1, 5]: 192.5 mg and 175.8 mg | Organ weight, Spleen [1, 5]: 102.6 mg and 103.7 mg | Organ weight, Tail [1, 5]: 236.2 mg and 229.1 mg | Organ weight, Kidney [1, 6]: 287.1 mg and 225.3 mg | Organ weight, Liver [1, 6]: 1760 mg and 1310 mg | Organ weight, Lung [1, 6]: 209.1 mg and 177.1 mg | Organ weight, Spleen [1, 6]: 110.8 mg and 75.6 mg | Organ weight, Tail [1, 6]: 235.8 mg and 239.6 mg | Organ weight, Kidney [1, 7]: 235.4 mg and 377.9 mg | Organ weight, Liver [1, 7]: 1570 mg and 2350 mg | Organ weight, Lung [1, 7]: 177.9 mg and 192.3 mg | Organ weight, Spleen [1, 7]: 88.7 mg and 104.2 mg | Organ weight, Tail [1, 7]: 215.1 mg and 248.2 mg | Histopathology (lung, liver, kidney, spleen, thymus, tail) ([1]; groups 1, 2, 3, and 5): all tissues examined were considered to be within the normal range | WBC differentials ([1]; peripheral blood, granulocyte and mononuclear cells): within normal limits | organ systems (weights, histopathological assessments) ([1]; vs sham-injected controls): within normal weight limits | Splenocytes ([2]; 1.0 mg/kg i.p.): 4.34 ± 0.7 ×10^7 | Splenocytes ([2]; 10 mg/kg i.p.): 3.59 ± 0.8 ×10^7 | Splenocytes ([2]; 100 mg/kg i.p.): 3.62 ± 0.4 ×10^7 | PFC increase, significance ([3]; 1 mg/kg): values higher than the control group but the difference was not statistically significant | Anti-SRBC Plaque Forming Cells ([3]; 1.0 mg/kg i.p.): 192.8 ± 59. | PFC increase, significance ([3]; 100 and 10 mg/kg): A significant increase in PFC | Lymphocyte Blastogenesis, PHA [4]: 5849 ± 1227 Counts per minute | Lymphocyte Blastogenesis, RPMI [4]: 83 ± 35 Counts per minute
